“Also recorded” adds a separate entry of the source. Like-named read-outs stand apart in the source and are kept apart here.
Experiments:
Type in all cases: in vivo, rat (Sprague-Dawley)
[1] = Glycemia after 4 weeks treatment
Method: (§1) The action on the endocrine glands and the genital tractus, and a possible ulcerogenic effect were investigated, together with the effects on the glucidic and proteic metabolisms, on the hydro-mineral equilibrium after long-term administration.
(§2) There were utilized groups of 10 male rats and ten female rats of Sprague-Dawley S.P.F. strain which have been given the products under study by sub-cateneous methods daily for four weeks.
(§3) The products were administered in suspension in 5 % carboxy-methyl-cellulose under a volume of 0.5 ml. per 100 grams of body weight, in three different doses, the animals of the reference lot receiving the same volume of the vehicle alone.
In order to confirm certain previous results of the pharmacological short-term study, there has furthermore been determined, for each lot of animals:
at the end of the treatment:
(§4) During the course of the long-term study, the JO 1016 was administered daily to the male and female rats in doses of 100 mg/kg, 250 mg/kg, 500 mg/kg by the sub-cutaneous route.
The following Tables XIV and XV indicate the results of the proportions of glycemia with the reference animals and animals treated for 4 weeks following the procedure (h)

[2] = system: liver, kidneys, spleen, thymus, stomach; conditions: 4 weeks
Text: as §1
The principle of the tests employed is as follows.
The ulcer-producing action of certain corticoids, after repeated administration is well known, but the mechanism of this action still remains doubtful.
(§5) These studies have been carried out for some of the products according to the invention after sub-chronic administration.
as §2, §3
(§6) At the end of this study there were extracted:
(§7) The samples numbered (1), (2) and (3) were immediately weighed. All the samples were then fixed for histological examination in the Bouin-Holland fixator.
as §4

[3] = system: adrenal glands, gonads, seminal vesicles, uterine tubes; assay: Action on the endocrine glands and the genital tractus: organ weights and histology, long-term treatment; conditions: for Ovaries weight / Seminal vesicles weight / Testicles weight / Uterine tubes weight / Adrenal glands weight: 4 weeks, N.S.
Text: as §1
The repeated administration of corticoids may result in an inhibition of the secretion of the ante-hypophysiary hormone which is shown by a lowering of the effectiveness of the target-glands (example: adrenal-glandes) and indirectly of certain organs which are under the dependence of a hormone secretion (example: genital tractus).
as §5, §2, §3, §6
(2) the gonads (testicles or ovaries);
(3) the seminal vesicles or the uterine tubes;
as §7, §4
After a long-term treatment by the JO 1016, following the procedure (h), the average weights of the following organs: adrenal glandes, gonads, seminal vesicles, uterine tubes are indicated in the following Table XXII

## CC(C)(C)C(=O)SCC(=O)[C@@]1(O)CC[C@H]2[C@@H]3CCC4=CC(=O)CC[C@]4(C)[C@H]3[C@@H](O)C[C@@]21C [JO 1016, Dihydroxy-11β, 17α thio-21 dioxo-3,20 pregnene-4-21 pivalate]
[1]; female, 500 mg/kg s.c.
  Glycemia, average ± standard error: 1,10 ± 0,04 g/liter
[1]; male, 100 mg/kg s.c.
  Glycemia, average ± standard error: 1.2 ± 0.04 g/L
[1]; male, 250 mg/kg s.c.
  Glycemia, average ± standard error: 1.2 ± 0.05 g/L
[1]; male, 500 mg/kg s.c.
  Glycemia, percentage of variation and probabilities: N.S.
[2]; 250 mg/kg s.c. daily
  Kidneys: presence of abscess (cases): 0/10
  Liver: presence of abscess (cases): 0/10
  Spleen: atrophied (cases): 0/10
  Stomach: ulcerated (cases): 0/10
  Stomach: ulcerated and infected (cases): 0/10
  Thymus: atrophied (cases): 0/10
[2]; 500 mg/kg s.c. daily
  Kidneys: presence of abscess (cases): 0/10
  Liver: presence of abscess (cases): 0/10
  Spleen: atrophied (cases): 0/10
  Stomach: ulcerated (cases): 0/10
  Stomach: ulcerated and infected (cases): 0/10
  Thymus: atrophied (cases): 0/10
[3]; 100 mg/kg s.c.
  Ovaries weight: 38.4 mg
  Seminal vesicles weight: 328.0 mg
  Testicles weight: 1.143 g
  Uterine tubes weight: 211.8 mg
[3]; 250 mg/kg s.c.
  Ovaries weight: 38.3 mg
  Seminal vesicles weight: 296.0 mg
  Testicles weight: 1.144 g
  Uterine tubes weight: 184.7 mg
[3]; 500 mg/kg s.c.
  Ovaries weight: 39.3 mg
  Seminal vesicles weight: 274.6 mg
  Testicles weight: 1.207 g
  Uterine tubes weight: 165.4 mg
[3]; female rats, 100 mg/kg s.c.
  Adrenal glands weight: 26.7 mg
[3]; female rats, 250 mg/kg s.c.
  Adrenal glands weight: 24,5 mg
[3]; female rats, 500 mg/kg s.c.
  Adrenal glands weight: 27,0 mg
[3]; long-term s.c. treatment
  Histological examination of organs: has not furthermore brought into evidence any alteration of their structure; also recorded: neither atrophy nor surrenal hypertrophy; also recorded: nor modification of the functional aspect of the male and female genital organs
[3]; male rats, 100 mg/kg s.c.
  Adrenal glands weight: 14.9 mg
[3]; male rats, 250 mg/kg s.c.
  Adrenal glands weight: 12,3 mg
[3]; male rats, 500 mg/kg s.c.
  Adrenal glands weight: 13.5 mg

Source: patent US4014909A, “Esters of 21-thiol steroids” (priority 1974, dated 1977)
